US20230018245A1, “Skin Whitening Composition Containing Dihydro-5-Methylfuran-2(3h)-One Derivative” (Epi Biotech Co., Ltd., priority 2019, published 2023)
No end group written: not given here.

Key:
[1] = target: T1, tyrosinase extracted from B16 melanoma cells (Mus musculus, UniProt P11344); assay: Inhibition of tyrosinase activity, L-DOPA oxidation (Example 5); format: biochemical; conditions: tyrosinase and L-DOPA, 37° C., 1 hour, absorbance 475 nm; vs positive control treated with tyrosinase and L-DOPA; FIG. 7
T1 construct: tyrosinase was extracted from B16 melanoma cells and used as an enzyme source; endogenous in cells; host or cells: B16 melanoma cells stimulated with alpha-MSH; cell extract
T1 sequence (P11344 19-533): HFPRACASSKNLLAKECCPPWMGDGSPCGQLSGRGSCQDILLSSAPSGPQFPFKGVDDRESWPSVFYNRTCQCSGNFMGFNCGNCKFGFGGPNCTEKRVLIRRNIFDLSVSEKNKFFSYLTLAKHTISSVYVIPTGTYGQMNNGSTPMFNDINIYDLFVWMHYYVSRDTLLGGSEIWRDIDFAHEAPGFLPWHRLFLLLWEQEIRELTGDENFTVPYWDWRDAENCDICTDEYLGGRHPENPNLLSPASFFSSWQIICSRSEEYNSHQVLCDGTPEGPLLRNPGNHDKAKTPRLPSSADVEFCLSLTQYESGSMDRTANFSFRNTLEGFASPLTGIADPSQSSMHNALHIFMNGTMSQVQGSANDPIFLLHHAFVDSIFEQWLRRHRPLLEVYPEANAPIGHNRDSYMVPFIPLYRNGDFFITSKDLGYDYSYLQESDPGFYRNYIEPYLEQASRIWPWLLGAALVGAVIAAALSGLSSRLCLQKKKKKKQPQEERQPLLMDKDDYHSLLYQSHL
Method: B16 melanoma cells were aliquoted in a 100 mm culture dish at 2×10^5 cells/dish. After 24 hours, the medium from the 100 mm culture dish was removed and treated with DMEM medium containing 10% FBS and a stimulant (α-MSH). After 48 hours, tyrosinase was extracted from B16 melanoma cells and used as an enzyme source. Using the principle that tyrosinase oxidizes L-DOPA to DOPA chrome and DOPA chrome has absorbance at 475 nm, tyrosinase and L-DOPA were incubated at 37° C. for 1 hour and absorbance was measured at 475 nm at 2 minute intervals, so that the production amount of DOPA chrome according to time was measured. The amount of changing 1 nmole of L-DOPA per minute to DOPA chrome was defined as the amount of tyrosinase activity. The tyrosinase inhibitory effect of Compound 2 was evaluated by comparing the group treated with tyrosinase and L-DOPA in combination as a positive control and the group treated with tyrosinase, L-DOPA and Compound 2 in combination.

[2] = system: B16 melanoma cells; assay: Melanogenesis inhibition upon single or combination treatment with hydroquinone (Example 3); format: cell-based
Method: Using B16 melanoma cells, melanogenesis inhibition and melanosome degradation effect were confirmed upon single or combination treatment with hydroquinone and the compound of the present invention.
B16 melanoma cells were treated alone or in combination with hydroquinone and/or a compound of the present invention for 2 hours under the following conditions.
(i) Compound 2: 1, 3, 10 μM single administration
(ii) Hydroquinone: 1, 3, 10 μM single administration
(iii) Compound 2 (1, 3, 10 μM)+Hydroquinone (5 μM)
Thereafter, α-MSH was treated at a concentration of 100 nM for 76 hours.
After 72 hours, absorbance was measured at 405 nm to quantify the amount of melanin released into the medium, and the inhibition rate was calculated and shown in FIG. 5.

[3] = system: B16 melanoma cells; assay: Cytotoxicity of hydroquinone and Compound 2 by MTT assay (Example 4); format: cell-based; conditions: treated alone, concentration of 10 μM or less; α-MSH 100 nM 76 hours; absorbance 590 nm; FIG. 6
Method: Using B16 melanoma cells, cytotoxicity was measured by MTT assay when hydroquinone and Compound 2 were treated alone or in combination.
200 μL of B16 melanoma cells were aliquoted in a 96-well plate to 2.7×10^3 cells/well, and then cultured at 37° C., 5% CO2 incubator for 24 hours. B16 melanoma cells were treated with hydroquinone and/or Compound 2 for 2 hours under the same conditions as in Example 3.
Thereafter, α-MSH was treated at a concentration of 100 nM for 76 hours, and absorbance was measured at 590 nm by MTT assay, and the results are shown in FIG. 6.

`OC[C@H]1O[C@@H](Oc2ccc(O)cc2)[C@H](O)[C@@H](O)[C@@H]1O` [Arbutin] was tested, and the “inhibition of tyrosinase activity” value [1] was “inhibited the activity of tyrosinase”.
For `Oc1ccc(O)cc1` [hydroquinone, Benzene-1,4-diol], the IC50 ([2]; Mus musculus, B16, single treatment, based on the amount of melanogenesis in the positive control group (α-MSH 100 nM)) was 7.7 µM, the “melanogenesis inhibition and melanosome degradation effect” value ([2]; treated alone, 1, 3, 10 μM, α-MSH 100 nM, FIG. 5) was “dose-dependently increased” and the “cell viability / cytotoxicity (MTT assay)” value [3] was “no cytotoxicity”.
With “α-melanocyte stimulating hormone (SYSMEHFRWGKPV; ends and bridges not checked; UniProt P01189 138-150, looked up) [α-MSH, agonist that stimulates melanogenesis; used as the stimulant / positive control]” the “increase of the amount of melanin” value ([2]; positive control treated with α-MSH 100 nM) was 16.5 times.
